{"source": "patent US8895610B1", "about": "“Platinum (IV) compounds targeting zinc finger domains” (priority 2007, dated 2014)", "key": {"[1]": {"tested_on": "virions from HIV-1-transfected HeLa cells (pNL4-3)", "assay": "Electron micrographs of virions from HIV-1 transfected HeLa cells", "type": "cell-based, human", "conditions": "10 and 20 uM; vs untreated control cells", "method": "Virions collected from HeLa cells 24 hours post-transfected with pNL4-3 HIV-1 were treated with or without FX101 for 2 hours, washed with phosphate-buffered saline, pelleted by ultracentrifugation, fixed with buffer containing 2% glutaraldehyde and 0.1M sodium cacodylate as described (Freed, 1994), and analyzed by electron microscopy. These images reveal comparative distortions of both viral core and corresponding membranes of viral progeny, consistent with published images of immature virion particles having a thick electron-dense outer shell and an electron-lucent center lacking a typical cone-shaped core, produced by nucleocapsid mutant virions (Tanchou, 1998). Mutational deletion of either or both zinc finger domains of the nucleocapsid protein also produces morphologically altered virions, reduces virion release and alters RNA packaging (Houzet, 2008). The failure of nucleocapsid protein proteins to chaperone viral RNA together with the failure to form the nucleocapsid membrane reflects two roles of nucleocapsid proteins involving zinc finger domains. Obstruction of virion assembly may create impotent virions while maintaining antigens for host humoral immune response as virus-like particles. […]"}, "[2]": {"tested_on": "Petaluma strain of FIV", "assay": "Plasma viremia by reverse transcription TaqMan PCR in FIV-infected cats", "type": "in vivo, domestic cat", "conditions": "for Plasma Viremia: cats BR, CF", "text": "(§1) Currently available antiretrovirals require daily dosing, often in combination therapy. Two 12^+-year old specific-pathogen-free domestic female cats infected >5 years with the Petaluma strain of FIV were used in this study. The animals were housed individually in a climatized animal facility in accordance with standards, had ad libitum access to fresh water and food, and were sedated with Tiletamine/Zolazepam intramuscularly prior to any procedure. The cats weighed from 3-5 kg each. Three weeks before initiation of the treatment and at scheduled times, samples were collected for hematological and virological analyses. The cats received 9 intravenous doses of 3 mg/kg FX101 over 4.5 weeks (2× weekly).\nViral RNA extracted from plasma using the QIAmp viral RNA kit (QIAGEN), was reverse transcribed and amplified by reverse transcription TaqMan PCR. Reverse transcription and amplification conditions, and minimum detection limits of the assay (100-200 copies/mL plasma) are described elsewhere (Pistello, 2005). This measure represents viral presence in circulation, reflecting potential infectivity and productive synthesis of viral particles.\n(§2) 0.1664 g FX101 was dissolved into 30 mL 15% DMSO/PBS and stirred overnight. This solution was sterile-filtered using a 20-mL syringe fitted with a […] Sarstedt filter. Each dose was administered under anesthesia, a 1.5 mL venous injection using a 2.5 mL syringe fitted with a 22G 1¼-in. needle (latex free). Feline BR weighed 3.2 kg at the start of the experiment and CF weighed 2.8 kg. Each received 8.3 mg drug with each dose, so dosages were 2.6 mg/kg for BR and 3.0 mg/kg for CF.\nTable 8 illustrates measures of plasma viremia from the two test cats, “BR” and […] relative to the treatment period, receiving intravenous injections of FX101 twice weekly over four weeks. Each blood sample was taken immediately prior to drug injection for the scheduled dosing, August 23-September 30. This provided two pretreatment samples as baseline measures, 3 samples during treatment, and two post-treatment samples; note the addition of an unscheduled sample October 20. […] Following the last dosage, the first post-treatment results were ambiguous, with one cat experiencing a strong rebound and the other remaining below detection. This difference may be attributable to a uterine infection experienced by cat “BR” at this time—a historically frequent occurrence for this cat. It is well known that lipopolysaccharides (LPS) induce lentiviral replication, and this may therefore be related."}, "[3]": {"tested_on": "Petaluma strain of FIV (proviral DNA in PBMC)", "assay": "Proviral load in peripheral blood mononuclear cells by TM-PCR", "type": "in vivo, domestic cat", "conditions": "for Proviral Load in PBMC: cats BR, CF", "text": "as §1\nGenomic DNA was extracted from the PBMC using the QIAamp DNA Blood Mini kit (QIAGEN). Proviral DNA was quantified from 0.4 ug genomic DNA by TM-PCR under the same conditions used for cDNA amplification except that the reaction mixture volume was 25 ul (n=3). The sensitivity of the assay was 100 copies/ug genomic DNA (Pistello, 2005). Proviral load varied over the course of treatment, but measured much lower than baseline pretreatment measures both 6 and 9 months later (27 and 38 weeks, respectively). This measure reflects viral integration into the host PBMCs, primed for production of viral particles with commencement of transcription. […] This is indicative of viral clearance and immune recovery, including apoptotic elimination of virally-infected cells. Viral reservoirs, such as those of macrophages and monocytes, have prevented eradication of lentiviruses (Nicastri, 2008).\nas §2"}, "[4]": {"tested_on": "TIMP-1", "assay": "Feline blood serum immunofluorescent bead analysis: TIMP-1", "type": "in vivo, cat", "conditions": "cats BR, CF", "method": "Test sera samples from select felines were analyzed using the Rules-Based Medicine (Austin, Tex.) human multi-analyte for 90 measures from a single sample of less than 0.5 mL. The assay uses immunofluorescent beads to simultaneously measure antibody recognition to individually identifiable colored beads, each conjugated with a specific antibody, within a single well plate. Blood samples were drawn preceding (pretreatment) and following (post treatment) one-month FX101 treatment (from felines in Example 6), and are compared with two uninfected control felines. Human cross-reactive antibodies are commonly used for felines, and are relative rather than quantitative measures. Reductions in TNF-alpha and MMP-2 are evident in treated cats; TIMP-1 (Tissue Inhibitor of Metalloproteinases) is not associated with the downregulation of MMP-2. Both MMP-2 and MMP-9, as well as MCP-1, are considered important contributors to the penetration of virally-infected cells across the BBB (Webster, 2006). Additional comments follow the table."}, "[5]": {"assay": "Clinical observations, clinical chemistry, CBC and urinalysis in FIV cat studies", "type": "in vivo", "conditions": "9 intravenous doses of 3 mg/kg over 4.5 weeks; two FIV-infected cats", "text": "as §1"}, "[6]": {"target": "synthetic peptide F2, the carboxy-terminal zinc finger domain of HIV-1 (Human immunodeficiency virus type 1 group M subtype B, UniProt P12493)", "conditions": "1:1 metal:F2, 10^−4 mole/liter in PBS", "description": "The synthetic peptide F2, the carboxy-terminal zinc finger domain of HIV-1, was examined by ultraviolet-visible absorption spectroscopy for its interaction with various metals. […] Stock solutions of 2×10^−4 mole/liter F2 peptide were prepared in phosphate buffered saline (PBS) without calcium or magnesium; known stock concentrations of Fe(II), Co(II), Zn(II) and Pt(IV) metals were also prepared in PBS. One to one ratios of F2 peptide with each metal were individually combined at room temperature with final concentrations of 10^−4 mole/liter, and spectra were collected at various times using a Nanodrop Spectrophotometer (Thermo Scientific, Inc.) having a xenon flash lamp and requiring <2 microliters of sample deposited directly onto an optical lense."}, "[7]": {"conditions": "Aug. 23, 2007 start of treatment period, blood collected prior to dosing"}, "[8]": {"conditions": "Jun. 12, 2008 (+38 wk) post treatment"}, "[9]": {"conditions": "Mar. 27, 2008 (+27 wk) post treatment"}, "[10]": {"conditions": "Oct. 20, 2007 (+4 wk) post treatment"}}, "note": "Where “and” joins values, the source holds several entries; their conditions need not be identical. Equal values may be shown once. Entries after “also recorded” stand apart in the source; their conditions may differ.", "data": [{"smiles": "[NH2][Pt]([NH2])([Cl])([Cl])([Cl])[N+](=O)[O-]", "note": "[FX101, nitrotrichlorodiamminoPt(IV)]", "values": [{"measurement": "virion morphology (phenotype of virions produced)", "setting": "[1]", "value": "immature virions; also recorded: nucleotide-defective and nucleotide-deficient virion particles with morphologically altered phenotypes"}, {"measurement": "plasma viremia after treatment (in words)", "setting": "[2]; 4 weeks to 9 months past the final dosage, no additional therapies", "value": "significantly lower viremia as compared with baseline measures; also recorded: undetectable plasma viremia"}, {"measurement": "Plasma Viremia", "setting": "[2]; Aug. 2, 2007 pretreatment", "value": "2582 Viral RNA Copies/mL Plasma and 4282 Viral RNA Copies/mL Plasma"}, {"measurement": "Plasma Viremia", "setting": "[2]; [7]", "value": "8841 Viral RNA Copies/mL Plasma and 6974 Viral RNA Copies/mL Plasma"}, {"measurement": "Plasma Viremia", "setting": "[2]; Aug. 30, 2007 treatment period, i.v. twice weekly", "value": "1300 Viral RNA Copies/mL Plasma and 1249 Viral RNA Copies/mL Plasma"}, {"measurement": "Plasma Viremia", "setting": "[2]; Feb. 1, 2006 pretreatment", "value": "6557 Viral RNA Copies/mL Plasma and 3864 Viral RNA Copies/mL Plasma"}, {"measurement": "Plasma Viremia", "setting": "[2]; [8]", "value": "<200 Viral RNA Copies/mL Plasma"}, {"measurement": "Plasma Viremia", "setting": "[2]; Mar. 1, 2006 pretreatment", "value": "3072 Viral RNA Copies/mL Plasma and 2819 Viral RNA Copies/mL Plasma"}, {"measurement": "Plasma Viremia", "setting": "[2]; [9]", "value": "<200 Viral RNA Copies/mL Plasma"}, {"measurement": "Plasma Viremia", "setting": "[2]; [10]", "value": "898 Viral RNA Copies/mL Plasma and 1057 Viral RNA Copies/mL Plasma"}, {"measurement": "Plasma Viremia", "setting": "[2]; Sep. 4, 2007 treatment period, i.v. twice weekly", "value": "<100 Viral RNA Copies/mL Plasma"}, {"measurement": "Plasma Viremia", "setting": "[2]; Sep. 20, 2007 treatment period, i.v. twice weekly", "value": "<100 Viral RNA Copies/mL Plasma"}, {"measurement": "plasma viremia during treatment (in words)", "setting": "[2]; both cats, over two weeks of twice weekly i.v. injections", "value": "significant reduction in plasma viremia"}, {"measurement": "PBMC proviral load immediately following final dosing (in words)", "setting": "[3]; 14 days after the final dosing, both animals", "value": "short increase"}, {"measurement": "Proviral Load in PBMC", "setting": "[3]; [7]", "value": "4472 proviral DNA copies/ug genomic DNA and 6867 proviral DNA copies/ug genomic DNA"}, {"measurement": "Proviral Load in PBMC", "setting": "[3]; Aug. 30, 2007 treatment period", "value": "5803 proviral DNA copies/ug genomic DNA and 6476 proviral DNA copies/ug genomic DNA"}, {"measurement": "Proviral Load in PBMC", "setting": "[3]; [8]", "value": "1747 proviral DNA copies/ug genomic DNA and 1350 proviral DNA copies/ug genomic DNA"}, {"measurement": "Proviral Load in PBMC", "setting": "[3]; [9]", "value": "1250 proviral DNA copies/ug genomic DNA and 1000 proviral DNA copies/ug genomic DNA"}, {"measurement": "Proviral Load in PBMC", "setting": "[3]; Oct. 4, 2007 (+2 wk) post treatment", "value": "14500 proviral DNA copies/ug genomic DNA and 14724 proviral DNA copies/ug genomic DNA"}, {"measurement": "Proviral Load in PBMC", "setting": "[3]; [10]", "value": "4211 proviral DNA copies/ug genomic DNA and 2790 proviral DNA copies/ug genomic DNA"}, {"measurement": "Proviral Load in PBMC", "setting": "[3]; Sep. 20, 2007 treatment period", "value": "4152 proviral DNA copies/ug genomic DNA and 4660 proviral DNA copies/ug genomic DNA"}, {"measurement": "proviral loads over subsequent months (in words)", "setting": "[3]; months after treatment, vs pretreatment baseline", "value": "declined over subsequent months, even below pretreatment baseline measures"}, {"measurement": "TIMP-1, relative blood serum measure", "setting": "[4]; post treatment (one-month FX101 treatment)", "value": "9.0 ng/mL and 7.3 ng/mL"}, {"measurement": "TIMP-1, relative blood serum measure", "setting": "[4]; pretreatment", "value": "6.5 ng/mL and 9.8 ng/mL"}, {"measurement": "local reactions or adverse clinical indicators", "setting": "[5]", "value": "No local reactions or adverse clinical indicators"}, {"measurement": "comparative absorption at 250 nm of metal with F2 peptide", "setting": "[6]", "value": 0.118}]}]}
